Measurements published in patent US8030341B2, “Dmt-derivative compounds and related compositions and methods of use” (priority 2005, dated 2011).
Read-outs that look alike come from different tables or passages of the source.

Legend:
μ-opioid receptor [1] = target: μ-opioid receptor (Cavia porcellus, UniProt P97266); assay: guinea pig ileum (GPI) bioassay; type: cell-based; settings: Table 4
Experimental: The myenteric plexus longitudinal muscle preparations (2-3 cm segments) from the small intestine of male Hartley strain guinea pigs (GP1) measured μ-opioid receptor agonism and a single mouse vas deferens (MVD) was used to determine δ-opioid receptor agonism as described in Sasaki et al. Bioorg. […] The isolated tissues were suspended in organ baths containing balanced salt solutions in a physiological buffer, pH 7.5. Agonists were tested for the inhibition of electrically evoked contraction and expressed as IC50 (nM) obtained from the dose-response curves.

μ-opioid receptor [2] = target: T1, μ-opioid receptor (Rattus norvegicus, UniProt P33535); assay: opioid receptor binding competition assay, rat brain P2 synaptosomal membranes (μ); settings: Table 3
T1 construct: from tissue; host or cells: rat brain P2 synaptosomal membranes (Sprague-Dawley)
Experimental: (§1) Synaptosomes were preincubated to remove endogenous opioids, washed in excess ice-cold buffer containing protease inhibitor and stored in a glycerol-containing buffer with protease inhibitor at −80° C. as described in Lazarus et al., J. Med. Chem. 34:1350-55 (1991). […] After incubation, the radiolabeled membranes were rapidly filtered on Whatman GF/C glass fiber filters presoaked in 0.1% polyethylenimine in order to optimize the signal-to-noise ratio, washed with ice-cold BSA buffer, and dried at 75-80° C. Radioactivity was determined using EcoLume (ICN, Costa Mesa, Calif.). All compounds were analyzed in duplicate using 5-8 peptide dosages and several synaptosomal preparations in independent repetitions to ensure statistical significance. The affinity constants (Ki) were calculated according to Cheng and Prusoff (Cheng et al., Biochem. Pharmacol., 22: 3099-3108 ([…])).

[3] = system: morphine-induced analgesia; assay: inhibition of morphine-induced analgesia after intracerebroventricular administration; type: in vivo; settings: mice
δ-opioid receptor [4] = target: T2, δ-opioid receptor (Rattus norvegicus, UniProt P33533); assay: opioid receptor binding competition assay, rat brain P2 synaptosomal membranes (δ); settings: Table 3; versus [3H]DPDPE; rat brain synaptosomes; read-out: Ki(δ)
T2 construct: from tissue; host or cells: rat brain P2 synaptosomal membranes (Sprague-Dawley)
Experimental: as §1

δ-opioid receptor [5] = target: T3, δ-opioid receptor (Mus musculus, UniProt P32300); assay: mouse vas deferens (MVD) bioassay; type: cell-based; settings: Table 4
T3 construct: from tissue; host or cells: isolated mouse vas deferens
Text: Bioorg. Med. Chem., 11: 675-678 (2003). The isolated tissues were suspended in organ baths containing balanced salt solutions in a physiological buffer, pH 7.5. […]

δ-opioid receptor [6] = target: T2, δ-opioid receptor; settings: Table 3; reference rows marked e, f, g (no SE, no n); cited from earlier work
μ-opioid receptor [7] = target: T1, μ-opioid receptor; settings: Table 3, reference rows marked e, f, cited from earlier work

Chain of μ-opioid receptor (Cavia porcellus, UniProt P97266) (P97266 whole entry, looked up): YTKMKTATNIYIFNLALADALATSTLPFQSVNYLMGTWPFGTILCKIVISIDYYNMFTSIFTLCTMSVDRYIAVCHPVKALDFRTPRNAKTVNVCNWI
T1 sequence (P33535 whole entry): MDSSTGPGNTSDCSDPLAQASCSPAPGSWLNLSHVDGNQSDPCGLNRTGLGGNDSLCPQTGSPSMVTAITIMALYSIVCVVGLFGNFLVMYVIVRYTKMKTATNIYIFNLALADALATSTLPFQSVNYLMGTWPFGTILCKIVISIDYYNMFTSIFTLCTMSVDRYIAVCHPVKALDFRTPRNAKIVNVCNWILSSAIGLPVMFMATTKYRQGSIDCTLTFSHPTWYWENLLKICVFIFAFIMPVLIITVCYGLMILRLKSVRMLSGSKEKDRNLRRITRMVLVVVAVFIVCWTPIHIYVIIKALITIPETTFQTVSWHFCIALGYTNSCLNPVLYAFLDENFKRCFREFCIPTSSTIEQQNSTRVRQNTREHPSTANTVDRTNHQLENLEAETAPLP
T2 sequence (P33533 whole entry): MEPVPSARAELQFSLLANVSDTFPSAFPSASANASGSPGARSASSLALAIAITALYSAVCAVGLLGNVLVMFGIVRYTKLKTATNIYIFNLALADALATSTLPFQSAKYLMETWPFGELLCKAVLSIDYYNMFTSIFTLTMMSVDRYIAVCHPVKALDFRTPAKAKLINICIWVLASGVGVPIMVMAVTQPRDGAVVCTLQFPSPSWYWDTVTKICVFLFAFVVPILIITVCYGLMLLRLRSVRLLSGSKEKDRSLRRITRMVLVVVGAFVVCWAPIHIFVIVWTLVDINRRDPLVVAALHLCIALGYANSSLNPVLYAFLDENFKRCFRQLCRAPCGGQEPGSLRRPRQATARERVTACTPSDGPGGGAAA
T3 sequence (P32300 whole entry): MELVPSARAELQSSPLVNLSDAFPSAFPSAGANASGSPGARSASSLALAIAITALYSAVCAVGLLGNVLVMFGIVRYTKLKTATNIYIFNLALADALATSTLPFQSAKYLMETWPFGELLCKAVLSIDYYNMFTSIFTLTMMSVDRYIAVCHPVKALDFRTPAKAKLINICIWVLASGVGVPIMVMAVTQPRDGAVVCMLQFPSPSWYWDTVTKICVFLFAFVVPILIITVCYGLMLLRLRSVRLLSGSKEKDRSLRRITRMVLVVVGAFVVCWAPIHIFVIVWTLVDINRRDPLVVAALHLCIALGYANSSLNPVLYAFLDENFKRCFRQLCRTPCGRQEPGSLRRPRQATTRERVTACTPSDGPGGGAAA

SMILES | IC50 (μ-opioid receptor [1]; agonism, read-out: GPI) | pA2(μ)/pA2(δ) (μ-opioid receptor [1]; selectivity of antagonism) | GPI pA2 (μ-opioid receptor [1]; μ antagonism) | Ki(δ)/Ki(μ) (μ-opioid receptor [2]; selectivity ratio) | Ki (μ-opioid receptor [2]; versus [3H]DAMGO, rat brain synaptosomes, read-out: Ki(μ)) | inhibition of morphine-induced analgesia [3] | Ki (δ-opioid receptor [4]) | IC50 (δ-opioid receptor [5]; agonism, read-out: MVD) | MVD pA2 (δ-opioid receptor [5]; δ antagonism) | Ki (δ-opioid receptor [6]) | Ki (μ-opioid receptor [7]; g (no SE, no n)) | Ki(δ)/Ki(μ) (μ-opioid receptor [7]; g)
C=CCNC(Cc1c(C)cc(O)cc1C)C(=O)NCCCCCCNC(=O)C(Cc1c(C)cc(O)cc1C)NCC=C (stereo not drawn) [Compound 33, Bis-[(N-allyl)Dmt-NH]hexyl] | > 10000 nM | 2.5 | 7.23 | 11 | 6.94 ± 1.4 nM | inhibit morphine-induced analgesia | 77.8 ± 14 nM | > 10000 nM | 6.83 |  |  | 
Cc1cc(O)cc(C)c1CC(N)C(=O)NCCCc1cnc(CCCNC(=O)C(N)Cc2c(C)cc(O)cc2C)c(=O)[nH]1 (stereo not drawn) [Compound 37, 3,6-Bis-[Dmt-NH-propyl]pyrazinone] |  |  |  |  |  |  |  |  |  | 13.2 nM | 0.042 nM | 307
